Test results: US20180369258A1, “ANTI-BACTERIAL COMPOUNDS BASED ON AMINO-GOLD PHOSPHINE COMPLEXES” (priority 2015, published 2018)

Tests used:
Assay type in all cases: cell-based
[1] = test system: human hepatocyte cell line (HepG2); test: HepG2 cell inhibition assay (CCK-8 viability); conditions: 50% growth inhibition vs untreated control, 24 hours
Experimental: Cell counting kit-8 (Sigma, CCK-8) assays were performed to assess the effect of compounds on cell viability. The assay is based on the reduction of a water-soluble tetrazolium salt (WST-8) by cellular dehydrogenases to a formazan dye which can be detected spectroscopically. 96-well plates were seeded with the human hepatocyte cell line (HepG2) at approximately 8×10^3 cells per well in Eagle's Minimum Essential Medium (EMEM) with Earle's salts and sodium bicarbonate supplemented with 10% heat-inactivated foetal bovine serum 2 mM glutamine and 1% non-essential amino acids (NEAA). The following day serial dilutions of compounds (dissolved and diluted in DMSO) were added to the cells in duplicates. Control wells included an ‘untreated’ control where cells were grown in the presence of 1% DMSO and a ‘medium only’ control (plus 1% DMSO). After 24 hours CCK-8 reagent (10 μl) was added to each well and cell viability was assessed by measuring the absorbance at a wavelength of 450 nm after 2-3 h hours. Only living cells can reduce the tetrazolium salts into coloured formazan products. Results were expressed as 50% growth inhibition (TD50) values compared to ‘untreated’ control.

K. pneumoniae 13368 = test: Disk diffusion assay, multidrug resistant clinical isolate
Experimental: (§1) The activity of test compounds against multi-drug resistant bacterial strains was assessed by the disk diffusion assay; a standardised method to assess for the antimicrobial susceptibility of microorganisms (adapted from EUCAST, Version 5, January 2015). In brief, bacterial cultures were suspended in phosphate buffer and spread evenly onto blood agar plates. Cellulose disks (5 mm) were placed onto the agar plates and 3 μl test compound (60 μg/disk) were pipetted to the centre. A panel of standard antibiotics disks (Sigma) were used to control for the antimicrobial resistance profile of the individual strains (quantity as indicated in the table). The plates were then placed into a thermo-incubator and were cultured at 37° C. over-night. Activity was recorded by measuring the zone of clearance (mm) around the disks.

E. faecalis DSM13591 = test: as above
Experimental: as §1

A. baumannii NC13421 = test: as above
Experimental: as §1

E. coli 13400 = test: as above
Experimental: as §1

[2] = test system: S. aureus (Oxford strain); test: Growth assay for S. aureus (MIC); conditions: background statement for auranofin
Experimental: Stock solution of the test compounds (20 mg/ml) in dimethyl sulfoxide (DMSO) were serially diluted in DMSO and each diluted compound added in duplicate to a 96-well plate to a final DMSO concentration of 2% (v/v). An overnight culture of S. aureus (Oxford strain) grown in tryptic soy broth (TSB) was diluted to approximately 5×10^7 cfu/ml and 150 μl of this sample was added to each well of the 96-well plates. Control wells included an ‘untreated’ control with bacteria in TSB in the presence of 2% DMSO and a negative sample (containing 150 μl TSB growth media in the presence of 2% DMSO). Plates were incubated in a shaking incubator at 37° C. for 22-24 hours and bacterial growth assessed by absorbance at a wavelength of 595 nm. The minimum inhibitory concentration (MIC) was defined as the lowest concentration of compound that inhibited growth compared to the no-treatment control.

V. cholerae = test: In vitro growth inhibition of V. cholerae (MIC); conditions: background statement for auranofin

C[N]([Au]=[P](C)(C)C)S(C)(=O)=O [Compound 21]
HepG2 cell TD50 [1]: 4 µg/mL

C[P](C)(C)=[Au][N]1C(=O)CCC1=O [Compound 7]
HepG2 cell TD50 [1]: 11 µg/mL

C[C@@H](O)[C@H]1C(=O)N2C(C(=O)O)=C(S[C@@H]3CN[C@H](C(=O)N(C)C)C3)[C@H](C)[C@H]12 [Meropenem]
Size of Clearance of Zone (K. pneumoniae 13368; antibiotic disk 10 μg): 22 mm
Size of Clearance of Zone (E. faecalis DSM13591; antibiotic disk 10 μg): 17 mm
Size of Clearance of Zone (A. baumannii NC13421; antibiotic disk 10 μg): R

Cc1ncc[n]1[Au]=[P](C)(C)C [Compound 47]
HepG2 cell TD50 [1]: 3.9 µg/mL

C[P](C)(C)=[Au][N]1Cc2ccccc2C1=O [Compound 20]
HepG2 cell TD50 [1]: 2 µg/mL

C[N]([Au]=[P](C)(C)C)S(=O)(=O)c1ccccc1 [Compound 24]
HepG2 cell TD50 [1]: 5 µg/mL

C[P](C)(C)=[Au][n]1cnc2ccccc21 [Compound 44]
HepG2 cell TD50 [1]: 5 µg/mL

C[P](C)(C)=[Au][N]1CCN(c2ccc(F)cc2)C1=O [Compound 27]
HepG2 cell TD50 [1]: 4 µg/mL

CC[N]([Au]=[P](C)(C)C)C(C)=O [Compound 4]
HepG2 cell TD50 [1]: 7 µg/mL

CO/N=C(\C(=O)N[C@@H]1C(=O)N2C(C(=O)O)=C(CSc3nc(=O)c(=O)[nH]n3C)CS[C@H]12)c1csc(N)n1 [Ceftriaxone]
Size of Clearance of Zone (E. coli 13400; antibiotic disk 30 μg): R
Size of Clearance of Zone (K. pneumoniae 13368; antibiotic disk 30 μg): R
Size of Clearance of Zone (E. faecalis DSM13591; antibiotic disk 30 μg): R
Size of Clearance of Zone (A. baumannii NC13421; antibiotic disk 30 μg): R

C[P](C)(C)=[Au][N]1CCCCC1=O [Compound 2]
HepG2 cell TD50 [1]: 3 µg/mL

C[P](C)(C)=[Au][N]1CCCCS1(=O)=O [Compound 29]
HepG2 cell TD50 [1]: 3 µg/mL

C[P](C)(C)=[Au][N]1C(=O)c2ccccc2C1=O [Compound 10]
HepG2 cell TD50 [1]: 15 µg/mL

C[P](C)(C)=[Au][n]1ccnn1 [Compound 37]
HepG2 cell TD50 [1]: 11.9 µg/mL

C[P](C)(C)=[Au][N]1C(=O)COc2ccccc21 [Compound 12]
HepG2 cell TD50 [1]: 4 µg/mL

C[P](C)(C)=[Au][n]1cnnn1 [Compound 40]
HepG2 cell TD50 [1]: 6 µg/mL

COc1ccc2c(c1)nc[n]2[Au]=[P](C)(C)C [Compound 39]
HepG2 cell TD50 [1]: 9 µg/mL

CC(=O)NC[C@H]1CN(c2ccc(N3CCOCC3)c(F)c2)C(=O)O1 [Linezolid]
Size of Clearance of Zone (E. faecalis DSM13591; antibiotic disk 10 μg): 22 mm

C[P](C)(C)=[Au][N]1CCOC1=O [Compound 9]
HepG2 cell TD50 [1]: 7 µg/mL

C[P](C)(C)=[Au][n]1ccccc1=O [Compound 13]
HepG2 cell TD50 [1]: 3 µg/mL

CC(=O)OC[C@H]1O[C@@H]([S-])[C@H](OC(C)=O)[C@@H](OC(C)=O)[C@@H]1OC(C)=O.CCP(CC)CC.[Au+] [Auranofin]
MIC, in vitro growth of S. aureus (Oxford strain) [2]: 0.6 to 0.9 µg/mL
MIC, in vitro growth of V. cholerae (V. cholerae): 2.5 µg/mL

C[P](C)(C)=[Au][n]1ccnc1 [Compound 43]
HepG2 cell TD50 [1]: 4 µg/mL

CN1C(=O)[N]([Au]=[P](C)(C)C)C(=O)C12CCCC2 [Compound 19]
HepG2 cell TD50 [1]: 13 µg/mL

C[P](C)(C)=[Au][n]1cccn1 [Compound 36]
HepG2 cell TD50 [1]: 7.3 µg/mL

C[P](C)(C)=[Au][n]1ccn(-c2ccccc2)c1=O [Compound 25]
HepG2 cell TD50 [1]: 5 µg/mL

Cc1nc2ccccc2[n]1[Au]=[P](C)(C)C [Compound 45]
HepG2 cell TD50 [1]: 5 µg/mL

CC[P](CC)(CC)=[Au][N]1C(=O)c2ccccc2C1=O [Compound 11]
HepG2 cell TD50 [1]: 4 µg/mL

C[C@@H](O)[C@H]1C(=O)N2C(C(=O)O)=C(SCCN=CN)C[C@H]12 [Imipenem]
Size of Clearance of Zone (E. coli 13400; antibiotic disk 10 μg): 29 mm
Size of Clearance of Zone (K. pneumoniae 13368; antibiotic disk 10 μg): 18 mm
Size of Clearance of Zone (E. faecalis DSM13591; antibiotic disk 10 μg): 26 mm
Size of Clearance of Zone (A. baumannii NC13421; antibiotic disk 10 μg): R

Cc1nnc(C)[n]1[Au]=[P](C)(C)C [Compound 46]
HepG2 cell TD50 [1]: 5 µg/mL

COc1ccc(N2CC[N]([Au]=[P](C)(C)C)C2=O)cc1 [Compound 26]
HepG2 cell TD50 [1]: 6 µg/mL

CC1(C)OC(=O)[N]([Au]=[P](C)(C)C)C1=O [Compound 30]
HepG2 cell TD50 [1]: 3 µg/mL

C[P](C)(C)=[Au][N]1CCCC1=O [Compound 31]
HepG2 cell TD50 [1]: 3 µg/mL

C[P](C)(C)=[Au][n]1cnc2cccnc21 [Compound 51]
HepG2 cell TD50 [1]: 3 µg/mL

CC[P](CC)(CC)=[Au][N]1CCOCC1=O [Compound 3]
HepG2 cell TD50 [1]: 6 µg/mL

CO/N=C(\C(=O)N[C@@H]1C(=O)N2C(C(=O)O)=C(COC(C)=O)CS[C@H]12)c1csc(N)n1 [Cefotaxime]
Size of Clearance of Zone (E. coli 13400; antibiotic disk 30 μg): 18 mm
Size of Clearance of Zone (K. pneumoniae 13368; antibiotic disk 30 μg): R
Size of Clearance of Zone (E. faecalis DSM13591; antibiotic disk 30 μg): R
Size of Clearance of Zone (A. baumannii NC13421; antibiotic disk 30 μg): R

CN1C(=O)[N]([Au]=[P](C)(C)C)C(=O)C1(C)C [Compound 17]
HepG2 cell TD50 [1]: 8 µg/mL

C[P](C)(C)=[Au][n]1ncc2cccnc21 [Compound 42]
HepG2 cell TD50 [1]: 5 µg/mL

C[P](C)(C)=[Au][N]1C(=O)COCC1=O [Compound 8]
HepG2 cell TD50 [1]: 9 µg/mL

CC1C(=O)[N]([Au]=[P](C)(C)C)C(=O)N1c1ccccc1 (stereo not shown) [Compound 16]
HepG2 cell TD50 [1]: 10 µg/mL

C[P](C)(C)=[Au][n]1ccnc1C(F)(F)F [Compound 48]
HepG2 cell TD50 [1]: 4 µg/mL

COc1ccc2c(cn[n]2[Au]=[P](C)(C)C)c1 [Compound 50]
HepG2 cell TD50 [1]: 3 µg/mL

C[C@@H](O)[C@H]1C(=O)N2C(C(=O)O)=C(S[C@@H]3CN[C@H](C(=O)Nc4cccc(C(=O)O)c4)C3)[C@H](C)[C@H]12 [Ertapenem]
Size of Clearance of Zone (E. coli 13400; antibiotic disk 10 μg): 30 mm
Size of Clearance of Zone (K. pneumoniae 13368; antibiotic disk 10 μg): R
Size of Clearance of Zone (E. faecalis DSM13591; antibiotic disk 10 μg): 14 mm
Size of Clearance of Zone (A. baumannii NC13421; antibiotic disk 10 μg): R

C[P](C)(C)=[Au][N]1CCCOC1=O [Compound 18]
HepG2 cell TD50 [1]: 5 µg/mL

CN1CC[N]([Au]=[P](C)(C)C)C1=O [Compound 5]
HepG2 cell TD50 [1]: 6 µg/mL

C[P](C)(C)=[Au][N]1CCOCC1=O [Compound 1]
HepG2 cell TD50 [1]: 4 µg/mL

C[P](C)(C)=[Au][N]1C(=O)C2CCCN2C1=O (stereo not shown) [Compound 15]
HepG2 cell TD50 [1]: 3 µg/mL

Colistin
Size of Clearance of Zone (E. coli 13400; antibiotic disk 10 μg): 12 mm
Size of Clearance of Zone (K. pneumoniae 13368; antibiotic disk 10 μg): 9.5 mm
Size of Clearance of Zone (A. baumannii NC13421; antibiotic disk 10 μg): 11 mm

C[P](C)(C)=[Au][n]1cnnc1 [Compound 38]
HepG2 cell TD50 [1]: 7 µg/mL

C[P](C)(C)=[Au][N]1C(=O)CCCC1=O [Compound 14]
HepG2 cell TD50 [1]: 7 µg/mL

CN[C@H](CC(C)C)C(=O)N[C@H]1C(=O)N[C@@H](CC(N)=O)C(=O)N[C@H]2C(=O)N[C@H]3C(=O)N[C@H](C(=O)N[C@H](C(=O)O)c4cc(O)cc(O)c4-c4cc3ccc4O)[C@H](O)c3ccc(c(Cl)c3)Oc3cc2cc(c3O[C@@H]2O[C@H](CO)[C@@H](O)[C@H](O)[C@H]2O[C@H]2C[C@](C)(N)[C@H](O)[C@H](C)O2)Oc2ccc(cc2Cl)[C@H]1O [Vancomycin]
Size of Clearance of Zone (E. faecalis DSM13591; antibiotic disk 30 μg): R

C[P](C)(C)=[Au][N]1CCCS1(=O)=O [Compound 28]
HepG2 cell TD50 [1]: 9 µg/mL

C[P](C)(C)=[Au][n]1cc(C(F)(F)F)cn1 [Compound 41]
HepG2 cell TD50 [1]: 16 µg/mL

C[P](C)(C)=[Au][N]1CCN(c2ccccc2)C1=O [Compound 6]
HepG2 cell TD50 [1]: 9 µg/mL
